Values quoted from earlier work, collected in patent US7378114B2, “Method for producing soluble composition containing isoflavones” (Fuji Oil Company, Limited, priority 2001, dated 2008).

Conditions: under 25° C.; according to the literature; per 100 g solvent

O=c1c(-c2ccccc2)coc2ccccc12 [isoflavone]
solubility in water: 0.002 to 0.003 g
